Results reported in ChEMBL document CHEMBL5653615 (J Biol Chem, 2013).

Columns and labels:
[1] = molecular target: Dual specificity mitogen-activated protein kinase kinase 2 (Homo sapiens) (UniProt P36507); experiment: Inhibition of human MEK2 at 18.6 nM by HotSpot assay relative to control
[2] = molecular target: Proto-oncogene tyrosine-protein kinase ROS (Homo sapiens) (UniProt P08922); experiment: Inhibition of human ROS1 at 18.6 nM by HotSpot assay relative to control
[3] = molecular target: Cyclin-dependent kinase 4/cyclin D1 (Homo sapiens) (UniProt P11802+P24385); experiment: Inhibition of human CDK4/cyclin D1 at 18.6 nM by HotSpot assay relative to control; assay type: protein-complex assay
[4] = molecular target: Calcium/calmodulin-dependent protein kinase type 1B (Homo sapiens) (UniProt Q6P2M8); experiment: Inhibition of human CAMK1b at 18.6 nM by HotSpot assay relative to control
[5] = molecular target: Calcium/calmodulin-dependent protein kinase kinase 2 (Homo sapiens) (UniProt Q96RR4); experiment: Inhibition of human CAMKK2 at 18.6 nM by HotSpot assay relative to control
[6] = molecular target: SRSF protein kinase 1 (Homo sapiens) (UniProt Q96SB4); experiment: Inhibition of human SRPK1 at 18.6 nM by HotSpot assay relative to control
[7] = molecular target: T1, Serine/threonine-protein kinase TAO3 (Homo sapiens) (UniProt Q9H2K8); experiment: Inhibition of human JIK at 18.6 nM by HotSpot assay relative to control
T1 sequence (whole entry): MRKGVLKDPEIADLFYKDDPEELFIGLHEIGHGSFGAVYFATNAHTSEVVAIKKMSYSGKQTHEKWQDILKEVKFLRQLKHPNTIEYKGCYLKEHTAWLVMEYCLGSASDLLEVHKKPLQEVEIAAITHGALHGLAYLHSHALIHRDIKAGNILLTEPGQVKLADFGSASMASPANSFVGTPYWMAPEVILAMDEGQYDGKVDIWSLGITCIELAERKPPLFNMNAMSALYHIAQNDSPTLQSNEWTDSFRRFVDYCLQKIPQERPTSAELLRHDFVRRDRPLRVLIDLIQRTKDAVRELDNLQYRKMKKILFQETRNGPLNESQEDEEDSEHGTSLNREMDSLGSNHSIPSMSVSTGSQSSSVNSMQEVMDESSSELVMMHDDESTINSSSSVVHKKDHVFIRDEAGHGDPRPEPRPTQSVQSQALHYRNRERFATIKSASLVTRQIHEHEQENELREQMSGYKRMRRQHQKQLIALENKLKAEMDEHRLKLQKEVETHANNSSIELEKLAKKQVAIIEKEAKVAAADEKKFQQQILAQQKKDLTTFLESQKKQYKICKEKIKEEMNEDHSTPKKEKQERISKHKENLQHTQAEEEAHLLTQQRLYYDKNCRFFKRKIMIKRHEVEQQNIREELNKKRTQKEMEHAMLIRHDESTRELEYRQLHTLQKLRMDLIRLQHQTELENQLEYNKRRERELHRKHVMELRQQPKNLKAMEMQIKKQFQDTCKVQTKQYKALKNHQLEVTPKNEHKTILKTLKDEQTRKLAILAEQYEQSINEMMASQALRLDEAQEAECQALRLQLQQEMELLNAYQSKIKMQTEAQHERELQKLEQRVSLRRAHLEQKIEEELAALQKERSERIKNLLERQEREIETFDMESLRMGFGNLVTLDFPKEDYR

[8] = molecular target: Tyrosine-protein kinase receptor UFO (Homo sapiens) (UniProt P30530); experiment: Inhibition of human AXL at 18.6 nM by HotSpot assay relative to control
[9] = molecular target: Cyclin-dependent kinase 2/cyclin E1 (Homo sapiens) (UniProt P24864+P24941); experiment: Inhibition of human CDK2/cyclin E at 1.82 nM by HotSpot assay relative to control; assay type: protein-complex assay
[10] = molecular target: T2, Serine/threonine-protein kinase Nek1 (Homo sapiens) (UniProt Q96PY6); experiment: Inhibition of human NEK1 at 1.82 nM by HotSpot assay relative to control
T2 sequence (whole entry): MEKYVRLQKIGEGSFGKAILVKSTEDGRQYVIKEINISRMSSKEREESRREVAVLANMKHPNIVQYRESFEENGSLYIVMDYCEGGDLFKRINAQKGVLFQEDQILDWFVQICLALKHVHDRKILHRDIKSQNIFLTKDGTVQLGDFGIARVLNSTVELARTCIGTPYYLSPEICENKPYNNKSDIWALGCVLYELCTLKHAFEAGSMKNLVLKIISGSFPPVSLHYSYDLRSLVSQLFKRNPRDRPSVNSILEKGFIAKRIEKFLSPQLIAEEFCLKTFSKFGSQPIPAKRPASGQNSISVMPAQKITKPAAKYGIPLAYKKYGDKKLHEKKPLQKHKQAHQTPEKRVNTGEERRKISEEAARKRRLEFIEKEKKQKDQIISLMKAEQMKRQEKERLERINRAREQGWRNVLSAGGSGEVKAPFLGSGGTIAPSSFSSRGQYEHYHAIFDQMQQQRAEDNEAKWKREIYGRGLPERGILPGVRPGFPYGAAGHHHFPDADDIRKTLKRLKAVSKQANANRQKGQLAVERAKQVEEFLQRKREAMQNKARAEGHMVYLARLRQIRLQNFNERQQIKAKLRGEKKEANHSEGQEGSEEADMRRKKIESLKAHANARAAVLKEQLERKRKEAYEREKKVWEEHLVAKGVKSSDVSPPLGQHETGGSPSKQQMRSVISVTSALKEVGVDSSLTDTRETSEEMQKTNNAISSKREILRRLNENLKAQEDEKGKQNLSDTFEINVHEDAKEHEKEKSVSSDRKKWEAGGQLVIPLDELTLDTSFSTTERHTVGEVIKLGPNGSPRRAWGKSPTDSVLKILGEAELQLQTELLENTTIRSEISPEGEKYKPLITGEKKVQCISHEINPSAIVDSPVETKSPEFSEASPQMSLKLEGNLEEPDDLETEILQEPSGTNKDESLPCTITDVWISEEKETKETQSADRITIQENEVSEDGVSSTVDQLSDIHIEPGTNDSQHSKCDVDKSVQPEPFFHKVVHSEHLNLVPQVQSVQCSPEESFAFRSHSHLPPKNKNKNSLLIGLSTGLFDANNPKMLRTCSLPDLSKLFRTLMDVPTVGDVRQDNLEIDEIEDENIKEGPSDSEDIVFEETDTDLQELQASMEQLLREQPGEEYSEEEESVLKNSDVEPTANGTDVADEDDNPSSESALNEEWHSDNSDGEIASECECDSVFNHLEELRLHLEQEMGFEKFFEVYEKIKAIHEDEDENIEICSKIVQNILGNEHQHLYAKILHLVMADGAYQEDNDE

[11] = molecular target: Activated CDC42 kinase 1 (Homo sapiens) (UniProt Q07912); experiment: Inhibition of human ACK1 at 1.82 nM by HotSpot assay relative to control
[12] = molecular target: Serine/threonine-protein kinase 10 (Homo sapiens) (UniProt O94804); experiment: Inhibition of human LOK at 1.82 nM by HotSpot assay relative to control
[13] = molecular target: Casein kinase I isoform alpha (Homo sapiens) (UniProt P48729); experiment: Inhibition of human CK1a1 at 1.82 nM by HotSpot assay relative to control
Sequence of Casein kinase I isoform alpha (Homo sapiens) (P48729 2-337 limits assumed): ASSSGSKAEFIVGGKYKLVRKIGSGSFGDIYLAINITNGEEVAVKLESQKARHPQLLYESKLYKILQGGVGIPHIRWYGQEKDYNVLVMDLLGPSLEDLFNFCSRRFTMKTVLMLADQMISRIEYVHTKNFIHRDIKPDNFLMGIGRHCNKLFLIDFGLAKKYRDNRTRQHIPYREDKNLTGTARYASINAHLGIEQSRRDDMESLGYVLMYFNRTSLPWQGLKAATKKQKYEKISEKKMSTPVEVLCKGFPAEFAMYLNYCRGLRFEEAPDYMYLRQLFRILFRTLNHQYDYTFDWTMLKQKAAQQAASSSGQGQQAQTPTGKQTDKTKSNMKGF

Sequence of Tyrosine-protein kinase receptor UFO (Homo sapiens) (P30530 whole entry): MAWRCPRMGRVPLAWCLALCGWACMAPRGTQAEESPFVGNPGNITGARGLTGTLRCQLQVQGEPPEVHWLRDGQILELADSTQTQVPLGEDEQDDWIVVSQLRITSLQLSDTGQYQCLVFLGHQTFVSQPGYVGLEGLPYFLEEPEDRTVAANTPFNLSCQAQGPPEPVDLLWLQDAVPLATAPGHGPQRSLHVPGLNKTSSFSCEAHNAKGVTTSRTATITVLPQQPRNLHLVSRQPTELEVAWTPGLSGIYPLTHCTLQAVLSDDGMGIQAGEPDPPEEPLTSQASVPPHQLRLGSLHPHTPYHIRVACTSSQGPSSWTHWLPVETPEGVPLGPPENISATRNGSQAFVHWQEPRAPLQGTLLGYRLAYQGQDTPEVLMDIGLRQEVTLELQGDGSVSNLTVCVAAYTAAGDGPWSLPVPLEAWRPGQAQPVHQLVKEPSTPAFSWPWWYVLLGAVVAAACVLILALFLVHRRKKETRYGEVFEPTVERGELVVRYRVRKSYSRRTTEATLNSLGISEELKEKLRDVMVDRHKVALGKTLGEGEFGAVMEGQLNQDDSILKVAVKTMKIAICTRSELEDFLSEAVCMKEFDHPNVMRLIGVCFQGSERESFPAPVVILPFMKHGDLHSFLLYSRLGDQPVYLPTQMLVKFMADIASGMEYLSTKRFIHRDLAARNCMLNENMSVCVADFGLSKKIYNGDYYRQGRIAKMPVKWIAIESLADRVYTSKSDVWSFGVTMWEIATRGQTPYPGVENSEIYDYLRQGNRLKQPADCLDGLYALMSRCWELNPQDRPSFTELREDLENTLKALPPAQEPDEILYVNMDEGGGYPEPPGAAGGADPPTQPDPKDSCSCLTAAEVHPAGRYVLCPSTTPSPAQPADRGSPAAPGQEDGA
Sequence of Serine/threonine-protein kinase 10 (Homo sapiens) (O94804 whole entry, looked up, canonical isoform): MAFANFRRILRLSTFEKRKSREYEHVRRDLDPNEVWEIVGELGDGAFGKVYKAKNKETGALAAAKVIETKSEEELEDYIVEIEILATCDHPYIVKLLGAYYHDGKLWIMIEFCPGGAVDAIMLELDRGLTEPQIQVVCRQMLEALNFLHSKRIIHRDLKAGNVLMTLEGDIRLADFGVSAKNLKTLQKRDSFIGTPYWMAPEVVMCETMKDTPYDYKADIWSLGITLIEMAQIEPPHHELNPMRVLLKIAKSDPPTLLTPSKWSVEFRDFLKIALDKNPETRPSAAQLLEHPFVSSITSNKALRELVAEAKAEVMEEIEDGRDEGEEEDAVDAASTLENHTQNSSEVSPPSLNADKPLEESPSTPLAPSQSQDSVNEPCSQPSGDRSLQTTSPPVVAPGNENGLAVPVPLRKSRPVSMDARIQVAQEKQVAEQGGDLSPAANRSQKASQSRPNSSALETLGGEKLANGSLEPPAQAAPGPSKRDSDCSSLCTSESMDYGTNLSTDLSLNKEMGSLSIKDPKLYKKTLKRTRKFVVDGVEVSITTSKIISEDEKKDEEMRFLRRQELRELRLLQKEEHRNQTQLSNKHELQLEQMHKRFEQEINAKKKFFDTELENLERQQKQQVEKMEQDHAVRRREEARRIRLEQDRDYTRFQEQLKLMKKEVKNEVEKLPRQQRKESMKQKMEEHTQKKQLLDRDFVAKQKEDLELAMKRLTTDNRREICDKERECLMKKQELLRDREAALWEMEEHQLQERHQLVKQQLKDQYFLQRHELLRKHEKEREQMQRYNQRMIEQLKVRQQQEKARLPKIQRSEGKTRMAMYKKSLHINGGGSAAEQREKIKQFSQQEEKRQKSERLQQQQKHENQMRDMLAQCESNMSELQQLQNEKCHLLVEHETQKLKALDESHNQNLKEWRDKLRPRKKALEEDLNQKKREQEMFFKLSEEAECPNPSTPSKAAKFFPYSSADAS
Sequence of SRSF protein kinase 1 (Homo sapiens) (Q96SB4 whole entry): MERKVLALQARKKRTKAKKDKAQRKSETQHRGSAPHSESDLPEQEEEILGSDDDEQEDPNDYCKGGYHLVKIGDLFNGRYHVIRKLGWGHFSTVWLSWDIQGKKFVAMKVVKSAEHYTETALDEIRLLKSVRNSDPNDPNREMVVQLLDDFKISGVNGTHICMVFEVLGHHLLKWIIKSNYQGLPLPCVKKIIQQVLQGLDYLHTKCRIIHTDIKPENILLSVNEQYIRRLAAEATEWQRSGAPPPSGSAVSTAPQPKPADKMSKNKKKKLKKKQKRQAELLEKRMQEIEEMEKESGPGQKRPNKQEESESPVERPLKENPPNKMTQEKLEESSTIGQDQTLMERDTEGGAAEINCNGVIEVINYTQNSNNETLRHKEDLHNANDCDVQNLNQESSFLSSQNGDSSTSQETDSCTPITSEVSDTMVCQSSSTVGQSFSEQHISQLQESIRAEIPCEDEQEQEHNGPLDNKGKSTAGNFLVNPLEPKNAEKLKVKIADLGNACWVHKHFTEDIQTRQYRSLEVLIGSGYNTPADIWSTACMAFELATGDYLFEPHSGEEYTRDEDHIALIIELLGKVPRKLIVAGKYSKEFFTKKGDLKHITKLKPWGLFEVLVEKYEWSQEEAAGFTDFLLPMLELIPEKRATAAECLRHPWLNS
Sequence of Dual specificity mitogen-activated protein kinase kinase 2 (Homo sapiens) (P36507 whole entry): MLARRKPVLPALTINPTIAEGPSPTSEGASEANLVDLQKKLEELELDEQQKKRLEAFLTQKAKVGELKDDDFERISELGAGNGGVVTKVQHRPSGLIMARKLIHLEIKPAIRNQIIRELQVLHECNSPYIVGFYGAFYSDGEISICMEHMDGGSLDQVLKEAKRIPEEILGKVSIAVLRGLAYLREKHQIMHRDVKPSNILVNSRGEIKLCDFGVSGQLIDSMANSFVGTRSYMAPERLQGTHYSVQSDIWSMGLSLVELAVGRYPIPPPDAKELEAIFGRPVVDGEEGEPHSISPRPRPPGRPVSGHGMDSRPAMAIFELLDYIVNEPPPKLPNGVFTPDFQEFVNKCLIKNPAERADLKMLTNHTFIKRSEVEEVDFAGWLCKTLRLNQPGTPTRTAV
Sequence of Calcium/calmodulin-dependent protein kinase type 1B (Homo sapiens) (Q6P2M8 whole entry): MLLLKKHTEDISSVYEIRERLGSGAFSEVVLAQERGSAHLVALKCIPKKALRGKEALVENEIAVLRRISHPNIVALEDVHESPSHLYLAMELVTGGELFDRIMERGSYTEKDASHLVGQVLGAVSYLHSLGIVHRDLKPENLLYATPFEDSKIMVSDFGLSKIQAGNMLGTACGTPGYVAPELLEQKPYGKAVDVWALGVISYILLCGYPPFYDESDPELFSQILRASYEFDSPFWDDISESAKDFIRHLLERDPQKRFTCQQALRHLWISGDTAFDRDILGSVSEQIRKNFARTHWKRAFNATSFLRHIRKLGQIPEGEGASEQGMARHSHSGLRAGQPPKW
Sequence of Calcium/calmodulin-dependent protein kinase kinase 2 (Homo sapiens) (Q96RR4 2-588 limits assumed): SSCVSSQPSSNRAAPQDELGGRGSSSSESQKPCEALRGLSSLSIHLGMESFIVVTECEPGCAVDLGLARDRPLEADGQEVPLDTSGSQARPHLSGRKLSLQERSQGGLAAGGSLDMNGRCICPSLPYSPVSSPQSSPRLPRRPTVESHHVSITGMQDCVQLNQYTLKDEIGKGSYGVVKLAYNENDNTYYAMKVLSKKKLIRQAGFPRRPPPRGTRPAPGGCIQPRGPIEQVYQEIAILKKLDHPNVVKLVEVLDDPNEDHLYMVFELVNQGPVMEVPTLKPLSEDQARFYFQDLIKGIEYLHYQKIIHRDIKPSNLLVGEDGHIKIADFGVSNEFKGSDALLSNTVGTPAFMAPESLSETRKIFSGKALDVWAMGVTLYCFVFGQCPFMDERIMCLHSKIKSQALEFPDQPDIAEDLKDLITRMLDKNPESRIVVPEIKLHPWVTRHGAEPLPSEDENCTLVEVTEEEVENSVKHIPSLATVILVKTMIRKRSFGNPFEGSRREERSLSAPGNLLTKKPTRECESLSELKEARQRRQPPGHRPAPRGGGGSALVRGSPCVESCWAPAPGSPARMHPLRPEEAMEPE

Row | inhibition [1] | inhibition [2] | inhibition [3] | inhibition [4] | inhibition [5] | inhibition [6] | inhibition [7] | inhibition [8] | inhibition [9] | inhibition [10] | inhibition [11] | inhibition [12] | inhibition [13] | SMILES
1 | -5.1% | -1.08% | -1.49% | -4.62% | 28% | -6.12% | 4.89% | 3.94% |  |  |  |  |  | C[C@]1(O)C[C@@H](c2nc(-c3ccc4ccc(-c5ccccc5)nc4c3)c3c(N)nccn32)C1
2 |  |  |  |  |  |  |  |  | 3.51% | -2.03% | 3.55% | 12% | -1.84% | C[C@@]1(C(=O)Nc2ccc(F)nc2)CCCN1c1nc(Nc2cc(C3CC3)n[nH]2)c2cccn2n1
